From patent US11450448B2, “Use of a linear octafluorobutene as a dielectric compound in an environmentally safe dielectric-insulation or arc-extinction fluid” (HITACHI ENERGY SWITZERLAND AG, priority 2016, dated 2022)

Legend:
[1] = Decomposition tests: accelerated ageing with GIS materials; assay type: physicochemical; settings: aged at 100° C. with Cu/Al plates, EPDM sealings, zeolites, SiO2, paints, grease, nitrile-butadiene rubber; analysed after 8 weeks of exposure
Experimental: In order to assess the material compatibility of octafluoro-2-butene towards material typically used in a GIS, the following components were aged at accelerated conditions (at 100° C.) with octafluoro-2-butene gas:
Both the gas as well as the components exposed to the gas were analysed after 8 weeks of exposure.

rats = assay: median lethal concentration (LC50) measured on rats; assay type: in vivo; settings: compared with C4N and C5K
Excerpt: Specifically, the term “environmentally safe” also means that the dielectric-insulation or arc-extinction fluid has a relatively low toxicity level. More specifically, the median lethal dose (LC50; lethal concentration 50%; measured on rats) of the dielectric compound used in the environmentally safe dielectric-insulation or arc-extinction fluid is higher than 4′000 ppm, preferably higher than 5′000 ppm and more preferably higher than 6′000 ppm. Thus, the dielectric compound used according to the present invention ranges within the same toxicity class as previously mentioned C4N (having a much higher GWP than the dielectric compound used according to the present invention) and C5K (having a much higher boiling point than the dielectric compound used according to the present invention).

| Compound | decomposition of the gas [1] | toxicity class (rats) |
| --- | --- | --- |
| FC(=C(F)C(F)(F)F)C(F)(F)F [octafluoro-2-butene] | For none of the tests, a decomposition of the octafluoro-2-butene was determined | – |
| linear octafluorobutene [linear octafluorobutenes] | – | ranges within the same toxicity class as for example heptafluoroisobutyronitrile (C4N) and 1,1,1,3,4,4,4-heptafluoro-3-(trifluoromethyl)-butan-2-one (C5K) |
